{
  "source": "patent US6521635B1",
  "about": "“Inhibition of MXR transport by acridine derivatives” (priority 2000, dated 2003)",
  "key": {"MCF-7 parental cells [1]": {"test_system": "MCF-7 parental cells", "assay": "Rhodamine efflux assay (flow cytometry)", "assay_type": "cell-based, human", "method": "To provide confirmation, rhodamine efflux assays were performed. […] The results are depicted in FIG. 2."}, "patients": {"test_system": "patients", "conditions": "cited from earlier work"}, "[2]": {"test_system": "S1-M1-80 cells expressing MXR", "assay": "In vitro cytotoxicity assay (sulforhodamine B staining)", "assay_type": "cell-based, human", "parameters": "sensitization to topotecan: dose or concentration left out as unconfirmed", "method": "(§1) Reversal of resistance was determined in cytotoxicity assays using the sulforhodamine staining (Skehan et al. (1990) J. Natl. […] Briefly, cells were harvested and seeded at a density of 2000 cells/well for the colon cancer lines and 4000 cells/well for the breast cancer cell lines in flat-bottom 96-well plates. The cells were incubated for 24 h at 37° C. to allow attachment prior to addition of the drugs. […] Each concentration was tested in triplicate and the controls were done in replicates of eight. Results are representative of from three to six experiments. […] After incubation, the cells were fixed in TCA and stained with sulforhodamine B (SRB) solution (0.4% wt/vol in 1% acetic acid) (Sigma Chemical, St Louis, Mo.). Optical densities were read on a Bio-Rad plate reader (Hercules, Calif.) at an absorbance of 540 nm."}, "[3]": {"test_system": "S1 parental cells (low endogenous level of Pgp)", "assay": "Rhodamine efflux assay (flow cytometry)", "assay_type": "cell-based, human", "method": "(§2) The rhodamine and calcein efflux assays were performed as previously described with minor modifications (Lee et al. (1994) Mol. Pharmacol. 46: 627-638; Versantvoort et al. (1995) Int. J. Cancer 63: 855-862.) Suspensions of logarithmic phase cells were obtained from tissue culture flasks by trypsinization and transferred into round-bottom 96-well plates. […] After the efflux period, the cells were washed with DPBS and placed on ice. A FACSort flow cytometer (Becton Dickinson, San Jose, Calif.) with a 488-nm argon laser was used to analyze the samples. Rhodamine 123 or calcein fluorescence was collected after a 530 nm bandpass filter. A minimum of 10,000 events was collected per sample and the samples were gated on forward scatter versus side scatter to exclude clumps and debris; dead cells were excluded based on propidium iodide staining.\n(§3) To provide confirmation, rhodamine efflux assays were performed. […] After an accumulation and efflux period, rhodamine fluorescence was quantitated by flow cytometric analysis. The results are depicted in FIG. 2. […] PSC 833, a cyclosporin-D analog, was used as a positive control for Pgp antagonism."}, "[4]": {"target": "Pgp (Pgp-overexpressing S1-B1-20 cells) (Homo sapiens, UniProt P08183)", "sequence (P08183 whole entry)": "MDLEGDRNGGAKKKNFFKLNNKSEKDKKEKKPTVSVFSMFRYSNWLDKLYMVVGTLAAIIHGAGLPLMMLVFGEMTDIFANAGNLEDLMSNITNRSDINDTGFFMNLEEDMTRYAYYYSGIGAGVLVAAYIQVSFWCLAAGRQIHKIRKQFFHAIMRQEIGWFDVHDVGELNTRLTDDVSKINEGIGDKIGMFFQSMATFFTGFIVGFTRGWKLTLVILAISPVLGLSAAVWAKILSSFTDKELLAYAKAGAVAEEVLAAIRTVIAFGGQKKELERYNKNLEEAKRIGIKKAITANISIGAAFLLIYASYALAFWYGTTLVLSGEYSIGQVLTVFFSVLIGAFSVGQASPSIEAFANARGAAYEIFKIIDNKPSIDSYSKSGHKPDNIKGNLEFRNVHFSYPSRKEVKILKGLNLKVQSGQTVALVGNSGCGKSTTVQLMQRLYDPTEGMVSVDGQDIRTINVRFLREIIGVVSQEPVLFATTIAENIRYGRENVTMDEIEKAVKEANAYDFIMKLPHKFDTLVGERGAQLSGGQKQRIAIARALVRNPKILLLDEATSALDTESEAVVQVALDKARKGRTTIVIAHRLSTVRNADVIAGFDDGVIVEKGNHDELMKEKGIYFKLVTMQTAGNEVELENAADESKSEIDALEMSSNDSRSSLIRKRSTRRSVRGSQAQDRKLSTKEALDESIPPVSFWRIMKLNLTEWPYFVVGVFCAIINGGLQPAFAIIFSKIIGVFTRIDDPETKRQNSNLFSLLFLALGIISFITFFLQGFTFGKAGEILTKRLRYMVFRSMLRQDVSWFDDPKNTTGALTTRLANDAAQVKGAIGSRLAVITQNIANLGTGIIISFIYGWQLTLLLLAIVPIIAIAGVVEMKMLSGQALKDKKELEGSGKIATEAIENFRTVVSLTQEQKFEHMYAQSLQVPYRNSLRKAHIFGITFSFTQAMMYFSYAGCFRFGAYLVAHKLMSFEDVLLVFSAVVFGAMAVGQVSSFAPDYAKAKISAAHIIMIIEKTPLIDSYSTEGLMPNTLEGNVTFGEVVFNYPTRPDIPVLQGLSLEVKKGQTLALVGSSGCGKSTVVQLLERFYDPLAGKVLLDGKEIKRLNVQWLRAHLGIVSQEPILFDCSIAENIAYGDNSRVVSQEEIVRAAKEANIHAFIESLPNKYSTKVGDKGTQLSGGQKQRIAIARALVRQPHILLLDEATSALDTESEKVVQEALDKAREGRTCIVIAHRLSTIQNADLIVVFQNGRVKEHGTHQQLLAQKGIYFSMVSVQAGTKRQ", "method": "as §2, §3"}, "Pgp (S1-B1-20 cells)": {"target": "T1, Pgp (S1-B1-20 cells) (Homo sapiens, UniProt P08183)", "T1 construct": "The S1-B1-20 cells overexpress Pgp; endogenous in cells; host or cells: S1-B1-20 (Pgp-overexpressing subline of S1 colon carcinoma cells)", "T1 sequence (P08183 whole entry)": "as above", "assay": "Calcein AM efflux assay (FACS)", "assay_type": "cell-based", "method": "as §2\n(§4) Calcein AM can be used to detect both Pgp and MRP-mediated efflux. Calcein permeates the cell in neutral form as an acetomethoxyester, calcein AM. Esterase activity cleaves the AM group leaving calcein as a fluorescent organic anion."}, "[5]": {"test_system": "P-glycoprotein overexpressing S1-B1-20 cells", "assay": "Confocal microscopy of mitoxantrone / rhodamine 123 accumulation", "assay_type": "cell-based, human", "method": "(§5) Cells were seeded in 35 mm glass-bottom microwell dishes (MatTek Corporation, Ashland, Mass.) at a density of 4000 cells/dish and incubated for 48 hours in phenol red-free IMEM supplemented with 10% fetal calf serum. […] The cells were analyzed using a Zeiss LSM 410 confocal laser scanning microscope equipped with a […] argon laser exciting mitoxantrone at 568 nm. Emitted light passed through a 590 nm long-pass filter."}, "[6]": {"test_system": "MXR-expressing S1-M1-80 cells", "assay": "Confocal microscopy of mitoxantrone / rhodamine 123 accumulation", "assay_type": "cell-based, human", "method": "as §5"}, "[7]": {"test_system": "S1-B1-20 Pgp-overexpressing cells", "assay": "In vitro cytotoxicity assay (sulforhodamine B staining)", "assay_type": "cell-based, human", "conditions": "GF120918 at 1 μM, Pgp-expressing S1-B1-20 cells", "method": "as §1"}, "[8]": {"assay": "In vitro cytotoxicity assay (sulforhodamine B staining)", "assay_type": "cell-based, human", "conditions": "human", "method": "as §1"}, "MCF-7 parental cells [9]": {"test_system": "MCF-7 parental cells", "assay": "In vitro cytotoxicity assay (sulforhodamine B staining)", "assay_type": "cell-based, human", "conditions": "Homo sapiens, MCF7, read-out: IC50 for GF120918 alone; MCF-7 parental cells", "method": "as §1"}, "S1 parental cells": {"test_system": "S1 parental cells", "assay": "In vitro cytotoxicity assay (sulforhodamine B staining)", "assay_type": "cell-based, human", "conditions": "Homo sapiens, read-out: IC50 for GF120918 alone; S1 parental cells", "method": "as §1"}, "Pgp": {"target": "Pgp (Homo sapiens, UniProt P08183)", "conditions": "reported in literature; cited from earlier work"}, "MRP (MCF-7/VP cells)": {"target": "T2, MRP (MCF-7/VP cells) (Homo sapiens, UniProt P33527)", "T2 construct": "Calcein is readily effluxed in the MRP-overexpressing MCF-7/VP cells; endogenous in cells; host or cells: MCF-7/VP (maintained in 4 uM VP-16; provided by Dr. Ken Cowan)", "T2 sequence (P33527 whole entry)": "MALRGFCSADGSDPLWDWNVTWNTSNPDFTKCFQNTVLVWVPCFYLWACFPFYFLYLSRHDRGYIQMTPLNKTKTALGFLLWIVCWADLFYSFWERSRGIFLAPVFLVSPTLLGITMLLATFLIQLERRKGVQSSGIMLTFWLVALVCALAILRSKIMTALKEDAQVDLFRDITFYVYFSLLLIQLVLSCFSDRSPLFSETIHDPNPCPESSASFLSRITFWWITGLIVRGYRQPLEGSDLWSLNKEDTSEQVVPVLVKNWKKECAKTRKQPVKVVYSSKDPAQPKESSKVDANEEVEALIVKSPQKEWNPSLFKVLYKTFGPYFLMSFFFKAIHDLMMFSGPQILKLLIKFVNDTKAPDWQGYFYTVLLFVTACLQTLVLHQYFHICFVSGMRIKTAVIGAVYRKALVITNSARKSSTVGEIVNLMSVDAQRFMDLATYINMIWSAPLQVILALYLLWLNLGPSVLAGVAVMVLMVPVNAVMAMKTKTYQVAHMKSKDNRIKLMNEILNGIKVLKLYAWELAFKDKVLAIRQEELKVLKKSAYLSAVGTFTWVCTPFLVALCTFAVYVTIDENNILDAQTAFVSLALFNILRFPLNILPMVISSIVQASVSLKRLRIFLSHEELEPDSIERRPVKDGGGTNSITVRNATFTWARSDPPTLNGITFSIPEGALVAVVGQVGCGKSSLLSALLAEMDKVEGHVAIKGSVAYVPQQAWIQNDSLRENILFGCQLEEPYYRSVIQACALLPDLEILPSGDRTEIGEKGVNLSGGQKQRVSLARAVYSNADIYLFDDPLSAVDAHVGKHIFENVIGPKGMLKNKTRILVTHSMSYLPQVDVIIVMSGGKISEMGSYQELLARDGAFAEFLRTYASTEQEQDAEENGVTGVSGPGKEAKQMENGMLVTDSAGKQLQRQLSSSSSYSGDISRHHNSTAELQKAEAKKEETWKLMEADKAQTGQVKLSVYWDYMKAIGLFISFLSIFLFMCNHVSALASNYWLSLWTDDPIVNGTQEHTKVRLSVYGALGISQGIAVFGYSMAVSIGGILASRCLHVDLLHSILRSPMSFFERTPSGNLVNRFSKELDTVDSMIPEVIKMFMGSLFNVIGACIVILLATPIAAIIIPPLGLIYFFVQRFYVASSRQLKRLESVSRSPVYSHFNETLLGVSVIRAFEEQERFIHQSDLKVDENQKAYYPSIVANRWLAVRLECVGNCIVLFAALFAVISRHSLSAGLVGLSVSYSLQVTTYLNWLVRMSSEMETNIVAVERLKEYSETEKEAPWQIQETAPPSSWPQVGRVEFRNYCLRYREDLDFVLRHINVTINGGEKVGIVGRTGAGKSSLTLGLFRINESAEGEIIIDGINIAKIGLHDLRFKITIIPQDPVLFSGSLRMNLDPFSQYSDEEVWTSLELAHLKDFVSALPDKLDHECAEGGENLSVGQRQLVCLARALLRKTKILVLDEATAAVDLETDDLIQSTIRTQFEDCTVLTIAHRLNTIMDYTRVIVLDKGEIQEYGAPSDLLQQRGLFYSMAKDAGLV", "assay": "Calcein efflux assay (FACS)", "assay_type": "cell-based", "conditions": "at 25 μM, MCF-7/VP cells (data not shown)", "method": "as §2, §4"}, "[10]": {"test_system": "MRP-overexpressing MCF-7/VP cells", "assay": "In vitro cytotoxicity assay (sulforhodamine B staining)", "assay_type": "cell-based, human", "method": "Reversal of resistance was determined in cytotoxicity assays using the sulforhodamine staining (Skehan et al. (1990) J. Natl. Cancer Inst. 82: 1107-1112). Briefly, cells were harvested and seeded at a density of 2000 cells/well for the colon cancer lines and 4000 cells/well for the breast cancer cell lines in flat-bottom 96-well plates. The cells were incubated for 24 h at 37° C. to allow attachment prior to addition of the drugs. Mitoxantrone and topotecan at various concentrations were added to the cells with or without the reversal agent and were incubated at 37° C. in a fully humidified atmosphere of 5% CO2 for 96 h. Each concentration was tested in triplicate and the controls were done in replicates of eight.\nAfter incubation, the cells were fixed in TCA and stained with sulforhodamine B (SRB) solution (0.4% wt/vol in 1% acetic acid) (Sigma Chemical, St Louis, Mo.). Optical densities were read on a Bio-Rad plate reader (Hercules, Calif.) at an absorbance of 540 nm."}},
  "data": [
    {"smiles": "COc1cc2c(cc1OC)CN(CCc1ccc(NC(=O)c3cccc4c(=O)c5cccc(OC)c5[nH]c34)cc1)CC2", "note": "[GF120918]", "values": [
      {"measurement": "effect on rhodamine efflux", "setting": "MCF-7 parental cells [1]", "result": "No effect"},
      {"measurement": "toxicity in phase I clinical trials", "setting": "patients", "result": "little toxicity"},
      {"measurement": "sensitization to mitoxantrone", "setting": "[2]; GF120918 at 1 μM, S1-M1-80 cells expressing MXR", "result": 1850, "unit": "fold"},
      {"measurement": "IC50", "setting": "[2]; Homo sapiens, S1-M1-80, read-out: IC50 for GF120918 alone, S1-M1-80 cells", "result": 2.5, "unit": "µM"},
      {"measurement": "sensitization to topotecan", "setting": "[2]; S1-M1-80 cells", "result": 23, "unit": "fold"},
      {"measurement": "effect on rhodamine accumulation and efflux", "setting": "[3]", "result": "small increase in rhodamine accumulation and a decrease in efflux"},
      {"measurement": "concentration giving complete inhibition of rhodamine efflux", "setting": "[4]", "result": 250, "unit": "nM"},
      {"measurement": "lowest concentrations at which rhodamine 123 efflux was decreased", "setting": "[4]", "result": "25 to 50", "unit": "nM"},
      {"measurement": "block of calcein AM efflux", "setting": "Pgp (S1-B1-20 cells); Pgp-expressing S1-B1-20 cells", "result": "able to block efflux"},
      {"measurement": "type of inhibition of Pgp", "setting": "Pgp (S1-B1-20 cells); calcein-AM efflux", "result": "non-competitive inhibitor"},
      {"measurement": "rhodamine 123 accumulation", "setting": "[5]; 0.4 μM GF120918", "result": "enhanced"},
      {"measurement": "mitoxantrone fluorescence", "setting": "[5]; 0.4 μM GF120918 during mitoxantrone incubation (data not shown)", "result": "level comparable to that of the parental line"},
      {"measurement": "effect on mitoxantrone fluorescence", "setting": "[6]; 0.4 μM GF120918", "result": "less marked"},
      {"measurement": "mitoxantrone level (accumulation, nuclear staining)", "setting": "[6]; 10 μM and 50 μM GF120918 (data not shown)", "result": "full reversal had been achieved"},
      {"measurement": "concentration for full reversal of the rhodamine accumulation defect", "setting": "[6]; S1-M1-80 cells", "result": 10, "unit": "µM"},
      {"measurement": "concentration at which the rhodamine 123 accumulation defect was reversed", "setting": "[6]; S1-M1-80 cells (data not shown)", "result": 2, "unit": "µM"},
      {"measurement": "sensitization to mitoxantrone", "setting": "[7]", "result": 31, "unit": "fold"},
      {"measurement": "IC50 at 96 h", "setting": "[8]", "result": 3.6, "unit": "µM"},
      {"measurement": "IC50", "setting": "MCF-7 parental cells [9]", "result": 40, "unit": "µM"},
      {"measurement": "IC50", "setting": "S1 parental cells", "result": 15.2, "unit": "µM"},
      {"measurement": "concentrations inhibiting Pgp-mediated efflux", "setting": "Pgp", "result": "nanomolar concentrations"},
      {"measurement": "reversal of MRP-mediated calcein efflux", "setting": "MRP (MCF-7/VP cells)", "result": "only slight reversal"},
      {"measurement": "IC50", "setting": "[10]; Homo sapiens, MCF7-VP, read-out: IC50 for GF120918 alone, MCF-7/VP cells", "result": 7.5, "unit": "µM"},
      {"measurement": "reversing MRP-mediated resistance", "setting": "[10]; cytotoxicity reversal studies with etoposide, MRP-overexpressing MCF-7 VP-16 cells (data not shown)", "result": "ineffective"}
    ]}
  ]
}
